The results in this text go back to EP4696306A1, “ADENOSINE TRIPHOSPHATE SECRETION INHIBITOR, HEPATIC STELLATE CELL ACTIVATION INHIBITOR, HEPATIC STELLATE CELL DEACTIVATOR, HEPATIC FIBROSIS THERAPEUTIC AGENT, NON-ALCOHOLIC STEATOHEPATITIS THERAPEUTIC AGENT, PSORIASIS THERAPEUTIC AGENT, AND USE OF COMPOUND FOR PRODUCING ADENOSINE TRIPHOSPHATE …” (KURUME UNIVERSITY, priority 2023, dated 2024).

In this test the target is T1, human VNUT (Homo sapiens, UniProt Q9BYT1).
T1 construct: made in house; host or cells: HIGH FIVE insect cells (baculovirus)
T1 sequence (Q9BYT1 1-430 isoform Q9BYT1-2): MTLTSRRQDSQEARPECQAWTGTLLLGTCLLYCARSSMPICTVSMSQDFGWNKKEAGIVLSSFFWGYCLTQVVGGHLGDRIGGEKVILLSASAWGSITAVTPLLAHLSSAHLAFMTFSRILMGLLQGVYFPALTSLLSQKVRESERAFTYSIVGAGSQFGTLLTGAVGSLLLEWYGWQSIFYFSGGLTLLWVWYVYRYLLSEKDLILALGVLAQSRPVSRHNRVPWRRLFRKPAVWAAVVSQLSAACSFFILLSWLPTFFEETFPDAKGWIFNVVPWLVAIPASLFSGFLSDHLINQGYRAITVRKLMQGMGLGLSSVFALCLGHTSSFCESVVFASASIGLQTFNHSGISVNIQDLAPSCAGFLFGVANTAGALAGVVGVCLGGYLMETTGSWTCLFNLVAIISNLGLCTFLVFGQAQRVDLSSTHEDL
Put plainly: ATP loading into reconstituted liposomes containing human VNUT. It is filed as biochemical. The note with it: 0.1 mM PEP; 30°C, 2 minutes; N = 3. How it is done: Human VNUT was prepared according to Reference C (Keisuke Sawada et al., 2008, Identification of a vesicular nucleotide transporter, Proc Natl Acad Sci USA, vol. 105, no. 15, 5683-5686). Insect cells (HIGH FIVE cells) were infected at MOI = 1 with a baculovirus in which a human VNUT expression system was incorporated. HIGH FIVE cells expressing VNUT (1 × 10^8 cells) were collected with a cell scraper, and suspended at about 8 mg/ml in 20 mM Tris-HCl (pH 8.0), 0.1 M potassium acetate, 10% glycerol, 10 µg/ml pepstatin A, and 10 µg/ml leupeptin, followed by homogenization of the cells using an ultrasonic generator (manufactured by Sonics Materials). […]
VNUT (protein, 20 µg) prepared by the above method was mixed with liposomes (lipid weight, 200 µg), and left to stand at -80°C for 30 minutes. […] A major band was detected at a position of about 68 kDa. The proteins after the electrophoresis with the ePAGEL E-T520 2-10% gradient gel (manufactured by Atto) were electrotransferred to a nitrocellulose sheet, and analyzed by Western blotting using an anti-human SLC17A9 (VNUT) rabbit polyclonal antibody (manufactured by Proteintech).
The ATP transport activity of the VNUT-containing reconstituted liposomes prepared by the above method was measured. […]

As for `C=C(OP(=O)(O)O)C(=O)O` [PEP, phosphoenolpyruvic acid], the “ATP loading into liposomes” value is on record as “strongly inhibited”.
